# From patent US8952024B2, “Herbicidal pyrimidone derivatives” (E I du Pont de Nemours and Company, priority 2009, dated 2015)
# Like-named read-outs stand apart in the source and are kept apart here.
# Legend:
# Test in all cases: Test B pre-/postemergence plant response
# Format in all cases: in vivo
# [1] = test system: Italian ryegrass (Lolium multiflorum); conditions: for pest or weed control at 125 g/ha: 125 g ai/ha
# Summary of the method: (§1)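 Visually scored on a 0 to 100 scale after 13 to 15 days in greenhouse versus controls. Treatments were preemergence on seeded loam/sand soil and postemergence on 1- to 4-leaf plants.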
# [2] = test system: Surinam grass (Brachiaria decumbens); conditions: for pest or weed control at 125 g/ha: 125 g ai/ha
# Summary of the method: as §1
# [3] = test system: bermudagrass (Cynodon dactylon); conditions: for pest or weed control at 31 g/ha: 31 g ai/ha; for pest or weed control at 125 g/ha: 125 g ai/ha
# Summary of the method: as §1
# [4] = test system: blackgrass (Alopecurus myosuroides); conditions: for pest or weed control at 31 g/ha: 31 g ai/ha; for pest or weed control at 125 g/ha: 125 g ai/ha
# Summary of the method: as §1
# corn (Zea mays) = conditions: for Corn plant response rating (crop injury, 0 = no effect, 100 = complete kill) at 31 g/ha: 31 g ai/ha; for Corn plant response rating (crop injury, 0 = no effect, 100 = complete kill) at 125 g/ha: 125 g ai/ha
# Summary of the method: as §1
# [5] = test system: downy bromegrass (Bromus tectorum); conditions: for pest or weed control at 31 g/ha: 31 g ai/ha; for pest or weed control at 125 g/ha: 125 g ai/ha
# Summary of the method: as §1
# [6] = test system: giant foxtail (Setaria faberii); conditions: for pest or weed control at 31 g/ha: 31 g ai/ha; for pest or weed control at 125 g/ha: 125 g ai/ha
# Summary of the method: as §1
# [7] = test system: goosegrass (Eleusine indica); conditions: for pest or weed control at 31 g/ha: 31 g ai/ha; for pest or weed control at 125 g/ha: 125 g ai/ha
# Summary of the method: as §1
# [8] = test system: green foxtail (Setaria viridis)
# Summary of the method: as §1
# [9] = 62 g ai/ha, postemergence, 0 is no effect, 100 is complete control, 13 to 15 days
# [10] = Preemergence, 250 g ai/ha, 0 to 100 scale
structure (smiles),measurement,setting,value
"O=C1CCCC(O)=C1C(=O)c1cnc(-c2cccnc2)n(-c2ccccc2)c1=O [Compound 113, 5-[(2-hydroxy-6-oxo-1-cyclohexen-1-yl)carbonyl]-3-phenyl-2-(3-pyridinyl)-4(3H)-pyrimidone]","Ryegrass, Italian plant response rating (0 to 100 scale)",[1]; [9],45
same,pest or weed control at 125 g/ha,"[1]; Lolium multiflorum, post-emergence, Postemergence, scale 0 to 100 (0 no effect, 100 complete control), read-out: Plant response rating, Ryegrass, Italian",50%
same,pest or weed control at 250 g/ha,"[1]; Lolium multiflorum, post-emergence, Postemergence, 250 g ai/ha, scale 0 to 100 (0 no effect, 100 complete control), read-out: Plant response rating, Ryegrass, Italian",85%
same,pest or weed control at 31 g/ha,"[1]; Lolium multiflorum, pre-emergence, Preemergence, 31 g ai/ha, scale 0 to 100 (0 no effect, 100 complete control), read-out: Plant response rating, Ryegrass, Italian",0%
same,pest or weed control at 62 g/ha,"[1]; Lolium multiflorum, pre-emergence, Preemergence, 62 g ai/ha, scale 0 to 100 (0 no effect, 100 complete control), read-out: Plant response rating, Ryegrass, Italian",5%
same,pest or weed control at 125 g/ha,"[1]; Lolium multiflorum, pre-emergence, Preemergence, scale 0 to 100, 0 no effect, 100 complete control, read-out: Plant response rating, Ryegrass, Italian",5%
same,"Ryegrass, Italian plant response rating",[1]; [10],40
same,Surinam Grass plant response rating (0 to 100 scale),[2]; [9],85
same,Surinam Grass plant response rating,[2]; [10],98
same,pest or weed control at 125 g/ha,"[2]; Urochloa decumbens, post-emergence, Postemergence, scale 0 to 100 (0 no effect, 100 complete control), read-out: Plant response rating, Surinam Grass",90%
same,pest or weed control at 250 g/ha,"[2]; Urochloa decumbens, post-emergence, Postemergence, 250 g ai/ha, scale 0 to 100 (0 no effect, 100 complete control), read-out: Plant response rating, Surinam Grass",90%
same,pest or weed control at 31 g/ha,"[2]; Urochloa decumbens, pre-emergence, Preemergence, 31 g ai/ha, scale 0 to 100 (0 no effect, 100 complete control), read-out: Plant response rating, Surinam Grass",0%
same,pest or weed control at 62 g/ha,"[2]; Urochloa decumbens, pre-emergence, Preemergence, 62 g ai/ha, scale 0 to 100 (0 no effect, 100 complete control), read-out: Plant response rating, Surinam Grass",80%
same,pest or weed control at 125 g/ha,"[2]; Urochloa decumbens, pre-emergence, Preemergence, scale 0 to 100, 0 no effect, 100 complete control, read-out: Plant response rating, Surinam Grass",95%
same,Bermudagrass plant response rating (0 to 100 scale),[3]; [9],90
same,pest or weed control at 31 g/ha,"[3]; Cynodon dactylon, post-emergence, postemergence, scale 0 to 100, 0 is no effect, 100 is complete control, read-out: Plant response rating, Bermudagrass",80%
same,pest or weed control at 125 g/ha,"[3]; Cynodon dactylon, post-emergence, Postemergence, scale 0 to 100 (0 no effect, 100 complete control), read-out: Plant response rating, Bermudagrass",95%
same,pest or weed control at 250 g/ha,"[3]; Cynodon dactylon, post-emergence, Postemergence, 250 g ai/ha, scale 0 to 100 (0 no effect, 100 complete control), read-out: Plant response rating, Bermudagrass",95%
same,pest or weed control at 31 g/ha,"[3]; Cynodon dactylon, pre-emergence, Preemergence, scale 0 to 100 (0 no effect, 100 complete control), read-out: Plant response rating, Bermudagrass",95%
same,pest or weed control at 62 g/ha,"[3]; Cynodon dactylon, pre-emergence, Preemergence, 62 g ai/ha, scale 0 to 100, 0 no effect, 100 complete control, read-out: Plant response rating, Bermudagrass",95%
same,pest or weed control at 125 g/ha,"[3]; Cynodon dactylon, pre-emergence, Preemergence, scale 0 to 100, 0 no effect, 100 complete control, read-out: Plant response rating, Bermudagrass",100%
same,Bermudagrass plant response rating,"[3]; Preemergence, 250 g ai/ha, 0 to 100 scale, 0 no effect, 100 complete control",100
same,Blackgrass plant response rating (0 to 100 scale),[4]; [9],0
same,pest or weed control at 31 g/ha,"[4]; Alopecurus myosuroides, post-emergence, 360 h, postemergence, scale 0 to 100, 0 is no effect, 100 is complete control, read-out: Plant response rating, Blackgrass",0%
same,pest or weed control at 125 g/ha,"[4]; Alopecurus myosuroides, post-emergence, 360 h, Postemergence, scale 0 to 100 (0 no effect, 100 complete control), read-out: Plant response rating, Blackgrass",5%
same,pest or weed control at 250 g/ha,"[4]; Alopecurus myosuroides, post-emergence, 360 h, Postemergence, 250 g ai/ha, scale 0 to 100 (0 no effect, 100 complete control), read-out: Plant response rating, Blackgrass",5%
same,pest or weed control at 31 g/ha,"[4]; Alopecurus myosuroides, pre-emergence, 360 h, Preemergence, scale 0 to 100 (0 no effect, 100 complete control), read-out: Plant response rating, Blackgrass",0%
same,pest or weed control at 62 g/ha,"[4]; Alopecurus myosuroides, pre-emergence, 360 h, Preemergence, 62 g ai/ha, scale 0 to 100, 0 no effect, 100 complete control, read-out: Plant response rating, Blackgrass",0%
same,pest or weed control at 125 g/ha,"[4]; Alopecurus myosuroides, pre-emergence, 360 h, Preemergence, scale 0 to 100, 0 no effect, 100 complete control, read-out: Plant response rating, Blackgrass",0%
same,Blackgrass plant response rating,[4]; [10],20
same,Corn plant response rating (0 to 100 scale),corn (Zea mays); [9],60
same,Corn plant response rating,corn (Zea mays); [10],0
same,"Corn plant response rating (crop injury, 0 = no effect, 100 = complete kill) at 31 g/ha","corn (Zea mays); Zea mays, post-emergence, postemergence, scale 0 to 100, 0 is no effect, 100 is complete control",25%
same,"Corn plant response rating (crop injury, 0 = no effect, 100 = complete kill) at 125 g/ha","corn (Zea mays); Zea mays, post-emergence, Postemergence, scale 0 to 100 (0 no effect, 100 complete control)",80%
same,"Corn plant response rating (crop injury, 0 = no effect, 100 = complete kill) at 250 g/ha","corn (Zea mays); Zea mays, post-emergence, Postemergence, 250 g ai/ha, scale 0 to 100 (0 no effect, 100 complete control)",85%
same,"Corn plant response rating (crop injury, 0 = no effect, 100 = complete kill) at 31 g/ha","corn (Zea mays); Zea mays, pre-emergence, Preemergence, scale 0 to 100 (0 no effect, 100 complete control)",0%
same,"Corn plant response rating (crop injury, 0 = no effect, 100 = complete kill) at 62 g/ha","corn (Zea mays); Zea mays, pre-emergence, Preemergence, 62 g ai/ha, scale 0 to 100, 0 no effect, 100 complete control",0%
same,"Corn plant response rating (crop injury, 0 = no effect, 100 = complete kill) at 125 g/ha","corn (Zea mays); Zea mays, pre-emergence, Preemergence, scale 0 to 100, 0 no effect, 100 complete control",0%
same,"Bromegrass, Downy plant response rating (0 to 100 scale)",[5]; [9],60
same,pest or weed control at 31 g/ha,"[5]; Bromus tectorum, post-emergence, postemergence, scale 0 to 100, 0 is no effect, 100 is complete control, read-out: Plant response rating, Bromegrass, Downy",5%
same,pest or weed control at 125 g/ha,"[5]; Bromus tectorum, post-emergence, Postemergence, scale 0 to 100 (0 no effect, 100 complete control), read-out: Plant response rating, Bromegrass, Downy",80%
same,pest or weed control at 250 g/ha,"[5]; Bromus tectorum, post-emergence, Postemergence, 250 g ai/ha, scale 0 to 100 (0 no effect, 100 complete control), read-out: Plant response rating, Bromegrass, Downy",90%
same,pest or weed control at 31 g/ha,"[5]; Bromus tectorum, pre-emergence, Preemergence, scale 0 to 100 (0 no effect, 100 complete control), read-out: Plant response rating, Bromegrass, Downy",0%
same,pest or weed control at 62 g/ha,"[5]; Bromus tectorum, pre-emergence, Preemergence, 62 g ai/ha, scale 0 to 100, 0 no effect, 100 complete control, read-out: Plant response rating, Bromegrass, Downy",10%
same,pest or weed control at 125 g/ha,"[5]; Bromus tectorum, pre-emergence, Preemergence, scale 0 to 100, 0 no effect, 100 complete control, read-out: Plant response rating, Bromegrass, Downy",10%
same,"Bromegrass, Downy plant response rating",[5]; [10],10
same,"Foxtail, Giant plant response rating (0 to 100 scale)",[6]; [9],85
same,"Foxtail, Giant plant response rating",[6]; [10],85
same,pest or weed control at 31 g/ha,"[6]; Setaria faberi, post-emergence, postemergence, scale 0 to 100, 0 is no effect, 100 is complete control, read-out: Plant response rating, Foxtail, Giant",80%
same,pest or weed control at 125 g/ha,"[6]; Setaria faberi, post-emergence, Postemergence, scale 0 to 100 (0 no effect, 100 complete control), read-out: Plant response rating, Foxtail, Giant",90%
same,pest or weed control at 250 g/ha,"[6]; Setaria faberi, post-emergence, Postemergence, 250 g ai/ha, scale 0 to 100 (0 no effect, 100 complete control), read-out: Plant response rating, Foxtail, Giant",95%
same,pest or weed control at 31 g/ha,"[6]; Setaria faberi, pre-emergence, Preemergence, scale 0 to 100 (0 no effect, 100 complete control), read-out: Plant response rating, Foxtail, Giant",5%
same,pest or weed control at 62 g/ha,"[6]; Setaria faberi, pre-emergence, Preemergence, 62 g ai/ha, scale 0 to 100, 0 no effect, 100 complete control, read-out: Plant response rating, Foxtail, Giant",40%
same,pest or weed control at 125 g/ha,"[6]; Setaria faberi, pre-emergence, Preemergence, scale 0 to 100, 0 no effect, 100 complete control, read-out: Plant response rating, Foxtail, Giant",60%
same,Goosegrass plant response rating (0 to 100 scale),[7]; [9],75
same,pest or weed control at 31 g/ha,"[7]; Eleusine indica, post-emergence, postemergence, scale 0 to 100, 0 is no effect, 100 is complete control, read-out: Plant response rating, Goosegrass",70%
same,pest or weed control at 125 g/ha,"[7]; Eleusine indica, post-emergence, Postemergence, scale 0 to 100 (0 no effect, 100 complete control), read-out: Plant response rating, Goosegrass",85%
same,pest or weed control at 250 g/ha,"[7]; Eleusine indica, post-emergence, Postemergence, 250 g ai/ha, scale 0 to 100 (0 no effect, 100 complete control), read-out: Plant response rating, Goosegrass",90%
same,pest or weed control at 31 g/ha,"[7]; Eleusine indica, pre-emergence, Preemergence, scale 0 to 100 (0 no effect, 100 complete control), read-out: Plant response rating, Goosegrass",75%
same,pest or weed control at 62 g/ha,"[7]; Eleusine indica, pre-emergence, Preemergence, 62 g ai/ha, scale 0 to 100, 0 no effect, 100 complete control, read-out: Plant response rating, Goosegrass",90%
same,pest or weed control at 125 g/ha,"[7]; Eleusine indica, pre-emergence, Preemergence, scale 0 to 100, 0 no effect, 100 complete control, read-out: Plant response rating, Goosegrass",100%
same,Goosegrass plant response rating,[7]; [10],100
same,"Foxtail, Green plant response rating (0 to 100 scale)",[8]; [9],80
same,"Foxtail, Green plant response rating",[8]; [10],100
same,pest or weed control at 31 g/ha,"[8]; Setaria viridis, post-emergence, 31 g ai/ha, postemergence, scale 0 to 100, 0 is no effect, 100 is complete control, read-out: Plant response rating, Foxtail, Green",80%
same,pest or weed control at 125 g/ha,"[8]; Setaria viridis, post-emergence, Postemergence, 125 g ai/ha, scale 0 to 100 (0 no effect, 100 complete control), read-out: Plant response rating, Foxtail, Green",80%
